Reference: PubChem BioAssay (NCI)
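All cell lines were grown in 96-well plates and treated with compound for 48 hours. The concentration for 50% growth inhibition is given as GI50. TGI: total growth inhibition.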

What was measured:
Test in all cases: NCI tumour cell line growth inhibition, 48 h
MDA-MB-231 breast = test system: MDA-MB-231 breast
PC-3 prostate = test system: PC-3 prostate
MDA-MB-435 = test system: MDA-MB-435
T-47D breast = test system: T-47D breast
NCI-H226 lung = test system: NCI-H226 lung
DU-145 prostate = test system: DU-145 prostate
HS 578T breast = test system: HS 578T breast
SNB-78 CNS = test system: SNB-78 CNS
M19-MEL melanoma = test system: M19-MEL melanoma
DMS 114 small cell lung = test system: DMS 114 small cell lung
P388 leukemia = test system: P388 leukemia
SN12K1 renal = test system: SN12K1 renal
KM20L2 colon = test system: KM20L2 colon
LXFL 529 NSCLC = test system: LXFL 529 NSCLC

Row | SMILES | TGI (MDA-MB-231 breast) [µM] | TGI (PC-3 prostate) [µM] | TGI (MDA-MB-435) [µM] | TGI (T-47D breast) [µM] | TGI (NCI-H226 lung) [µM] | TGI (DU-145 prostate) [µM] | TGI (HS 578T breast) [µM] | TGI (SNB-78 CNS) [µM] | TGI (M19-MEL melanoma) [µM] | TGI (DMS 114 small cell lung) [µM] | TGI (KM20L2 colon) [µM] | TGI (LXFL 529 NSCLC) [µM] | also measured
1 | CC[C@@H]1ON(C)[C@H]2CN(C)C(=O)[C@@H]12 | > 100 | > 100 | > 100 | > 100 | > 100 | > 100 | > 100 | – | – | – | – | – | –
2 | c1ccc(N2N=C(c3cccc(Nc4ccncc4)c3)CC2c2ccc3c(c2)OCO3)cc1 (stereo unspecified) | – | – | 1.47 | 5.12 | 5.05 | 3.66 | 3.42 | – | – | – | – | – | GI50 (MDA-MB-435): 0.383 µM; GI50 (T-47D breast): 2.1 µM; GI50 (NCI-H226 lung): 2.07 µM; GI50 (DU-145 prostate): 1.85 µM; GI50 (HS 578T breast): 1.55 µM
3 | C=C(C)C(=O)O[C@H]1CC2=C[C@@H](C[C@@]3(C)O[C@@H]3[C@H]3OC(=O)C(=C)[C@@H]31)OC2=O | – | – | – | – | 30.7 | – | – | 300 | 6.52 | 9.35 | 10.5 | – | GI50 (SNB-78 CNS): 1.27 µM; TGI (P388 leukemia): 15.6 µM; TGI (SN12K1 renal): 12.1 µM
4 | COc1ccc2c(c1O)-c1cc(O)cc3c1[C@@H](C2)N(C)CC3 | – | – | – | – | 108 | – | – | 212 | 128 | – | 31.2 | – | TGI (P388 leukemia): 106 µM; TGI (SN12K1 renal): 122 µM
5 | COc1cc(C2S/C(=C/c3ccccc3)C(=O)N2c2ccc(NC(C)=O)cc2)cc(OC)c1OC (stereo unspecified) | 41.3 | 48.1 | 62.4 | 55.1 | – | – | 83.2 | – | – | – | – | – | –
6 | COc1nc2ccc(COc3ccc(C(=O)NC(CCC(=O)O)C(=O)O)cc3)cc2nc1OC (stereo unspecified) | > 10 | > 10 | > 10 | > 10 | > 10 | > 10 | > 10 | – | – | – | – | – | –
7 | NC(=S)N/N=C/c1nccc2ccccc12 | – | – | – | – | – | – | – | – | 3.41 | 2.51 | > 100 | > 100 | –
8 | Cc1nc2c(c(=O)[nH]1)S/C(=C(/C#N)c1nc3ccccc3[nH]1)N2c1ccccc1 | – | – | – | – | – | – | – | > 100 | > 100 | > 100 | > 100 | > 100 | –
9 | O=C1C(Cl)N(c2cccc(Cl)c2)C1c1c[nH]c2ccccc12 (stereo unspecified) | – | – | – | – | – | – | – | – | > 100 | > 100 | > 100 | > 100 | –
